According to US10941153B2, “Substituted phenethylamine derivatives” (REGENTS OF THE UNIVERSITY OF MINNESOTA, priority 2018, dated 2021):
Each block holds one compound with its values, some of them ahead of it.

Key:
[1] = molecular target: 5-HT2B receptor (Homo sapiens, UniProt P41595); test: PDSP GPCR binding affinity, 5-HT2B
Text: (§1) In particular, the Ki (nM) value is provided. […] FIGS. 14-15 are graphical views of Log P vs. Ki, 5-HT2B receptor and Log P vs. Ki, sigma-1 receptor, respectively, summarizing the data presented in Table 6, according to one or more embodiments of the present disclosure. Assay data for compound 53545 against 5-HT7A receptor is presented in FIG. 18 and Tables 8-9 provided below:
Assay data for compound 53529 against 5-HT2B receptor is presented in FIG. 22 and Tables 12-13 provided below: […]

[2] = molecular target: T1, σ1 receptor (UniProt Q99720); test: PDSP binding affinity, sigma-1; set-up: species or system human
T1 construct: Ki, Sigma-1; σ1 potency and selectivity, in words; other: relative to compound 4e
Text: Assay data for compound 53558 against sigma-1 receptor is presented in FIG. 21 and Tables 10 and 11 below: […]

[3] = molecular target: 5-HT7 receptor (Homo sapiens, UniProt P34969); test: PDSP GPCR binding affinity, 5-HT7; details: for 5-HT7 potency, in words: relative to compound 4i
Text: as §1, with “below: […]” for “below:”

[4] = molecular target: T2, 5-HT1A receptor (Homo sapiens, UniProt P08908); test: PDSP GPCR binding affinity, 5-HT1A
T2 sequence (P08908 1-422): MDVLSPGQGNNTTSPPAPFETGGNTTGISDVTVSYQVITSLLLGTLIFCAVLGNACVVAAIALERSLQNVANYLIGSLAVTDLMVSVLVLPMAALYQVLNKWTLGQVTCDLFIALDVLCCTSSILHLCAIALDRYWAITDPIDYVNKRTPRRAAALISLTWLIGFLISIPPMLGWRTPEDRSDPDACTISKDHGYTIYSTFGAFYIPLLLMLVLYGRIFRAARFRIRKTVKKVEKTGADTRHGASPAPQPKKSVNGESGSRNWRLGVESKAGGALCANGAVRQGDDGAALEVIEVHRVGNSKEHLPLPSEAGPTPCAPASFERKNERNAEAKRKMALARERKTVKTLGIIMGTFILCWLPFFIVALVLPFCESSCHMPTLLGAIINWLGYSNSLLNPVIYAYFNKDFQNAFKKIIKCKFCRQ
Text: as §1, with “below: […]” for “below:”

[5] = system: human GPCR (serotonin, adrenergic, dopamine, histamine, muscarinic, opioid, sigma and others); test: PDSP broad GPCR screen; details: wider array of GCPR, Table 5
Experimental: The G-Protein-coupled receptor (GPCR) binding affinity of the compounds of the present disclosure was assessed through the Psychoactive Drug Screening Program.
An initial screen of three primary amines was submitted. […] The molecules were screened across a wide range of human GPCR including serotonin (5-HT), α- and β-adrenergic (Alpha and Beta), dopamine (D), histamine (H), muscarinic (M), opioid (OR), sigma (σ), and others (Table 1).

Sequence of 5-HT7 receptor (P34969 1-445 isoform P34969-2): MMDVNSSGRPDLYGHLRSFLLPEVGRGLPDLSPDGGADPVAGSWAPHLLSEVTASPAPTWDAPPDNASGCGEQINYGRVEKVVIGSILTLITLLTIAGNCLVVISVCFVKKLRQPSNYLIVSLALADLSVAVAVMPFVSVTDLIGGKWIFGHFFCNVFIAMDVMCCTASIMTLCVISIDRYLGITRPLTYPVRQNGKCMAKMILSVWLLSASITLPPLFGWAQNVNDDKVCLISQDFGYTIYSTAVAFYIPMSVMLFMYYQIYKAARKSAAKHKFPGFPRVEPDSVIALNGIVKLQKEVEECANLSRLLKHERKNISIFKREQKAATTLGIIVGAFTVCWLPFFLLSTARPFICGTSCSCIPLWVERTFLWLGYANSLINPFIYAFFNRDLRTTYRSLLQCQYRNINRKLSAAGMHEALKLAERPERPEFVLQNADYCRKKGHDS
Sequence of 5-HT2B receptor (P41595 whole entry): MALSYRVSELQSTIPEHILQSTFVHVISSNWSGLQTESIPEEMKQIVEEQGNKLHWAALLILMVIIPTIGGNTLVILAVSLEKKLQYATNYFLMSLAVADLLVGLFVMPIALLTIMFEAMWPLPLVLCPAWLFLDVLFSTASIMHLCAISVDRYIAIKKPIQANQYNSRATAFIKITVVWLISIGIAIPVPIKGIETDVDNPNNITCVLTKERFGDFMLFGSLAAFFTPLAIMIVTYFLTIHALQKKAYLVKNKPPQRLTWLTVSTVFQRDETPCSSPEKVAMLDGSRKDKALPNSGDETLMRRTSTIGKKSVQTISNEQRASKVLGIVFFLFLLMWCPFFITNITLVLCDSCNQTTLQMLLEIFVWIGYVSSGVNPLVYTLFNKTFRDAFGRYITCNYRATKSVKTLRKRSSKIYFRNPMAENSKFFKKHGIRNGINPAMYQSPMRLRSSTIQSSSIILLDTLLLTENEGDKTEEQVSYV

Compound: Cc1cc(C)c2c(c1)OC[C@@]1(C)NCC[C@@H]21 [Compound 4f]
5-HT2B binding, in words [1]: enhanced 5-HT2B binding

Compound: C[C@@]12COc3cc(OCc4ccccc4)ccc3[C@@H]1CCN2 [Compound 4c]
σ1 binding, in words [2]: potent σ1 ligand

5-HT7 potency, in words [3]: further enhanced
Compound: CN1CC[C@H]2c3ccccc3N(c3ccccc3)C[C@]21C [Compound 10c]

Compound: SB 206553 [reference compound]
Ki ([1]; 5-HT2B receptor, competition binding curve, SB 206553 as reference, read-out: Ki (Table 12)): 9.79 nM

5-HT7 potency, in words [3]: removed activity
Compound: CC(=O)N1CC[C@H]2c3ccccc3N(c3ccccc3)C[C@]21C [Compound 11c]

Compound: C[C@@]12COc3cc(O)ccc3[C@@H]1CCN2 [Compound 4d]
σ1 binding, in words [2]: detrimental to activity

Ki [4]: > 10000 nM
Ki [3]: 6.3 nM
selectivity for 5-HT7 vs next most sensitive receptor, σ1 [3]: ~75 fold
Compound: CC12CN(c3ccccc3)c3ccccc3C1CCN2 (stereo not shown) [Compound 4i]
activity across the additional GCPR investigated [5]: minimal activity
